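Where inhibition never reached the appropriate level, the endpoint shown equals the highest concentration tested. Otherwise, values were interpolated linearly from a five-concentration, 48-hour dose response in 96-well plates. GI50 is the concentration that inhibits growth by half.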 Active and inactive are the calls of the source. Cut-off read from the data, not from the text of the source: active = GI50 up to about 1.1 µM and inactive = higher. Peptide text beside a SMILES is read from it. * marks the point of attachment. Boc = CC(C)(C)OC(=O)*
What was measured:
Experiment in all cases: growth of human tumour cells (NCI), 48 h
[1] = tested on: T47D
[2] = tested on: LOX IMVI
[3] = tested on: SW-620
[4] = tested on: UO-31
[5] = tested on: SNB-19
[6] = tested on: MDA-MB-231
[7] = tested on: UACC-257
[8] = tested on: Hs-578T
[9] = tested on: HOP-62
[10] = tested on: MDA-MB-435
[11] = tested on: ACHN
[12] = tested on: SF-539
[13] = tested on: OVCAR-3
[14] = tested on: EKVX
[15] = tested on: SNB-75
[16] = tested on: NCI-H23
[17] = tested on: HL-60
[18] = tested on: SK-MEL-28
[19] = tested on: SK-MEL-5
[20] = tested on: CAKI-1
[21] = tested on: HT-29
[22] = tested on: U-251
[23] = tested on: CCRF-CEM
[24] = tested on: M14
[25] = tested on: NCI-H522
[26] = tested on: HCT-116
[27] = tested on: RXF 393
[28] = tested on: Malme-3M
[29] = tested on: OVCAR-8
[30] = tested on: HOP-92
[31] = tested on: KM12
[32] = tested on: OVCAR-4
[33] = tested on: SK-OV-3
[34] = tested on: SF-268
[35] = tested on: 786-0
[36] = tested on: MOLT-4
[37] = tested on: NCI/ADR-RES
[38] = tested on: SN12C
[39] = tested on: PC-3
[40] = tested on: DU-145
[41] = tested on: SK-MEL-2
[42] = tested on: MCF7
[43] = tested on: NCI-H226
[44] = tested on: COLO 205
[45] = tested on: SF-295
[46] = tested on: OVCAR-5
[47] = tested on: A549
[48] = tested on: TK-10
[49] = tested on: UACC-62
[50] = tested on: IGROV-1
[51] = tested on: BT-549
[52] = tested on: A498
[53] = tested on: HCT-15
[54] = tested on: MDA-N
[55] = tested on: NCI-H460
[56] = tested on: SR
[57] = tested on: RPMI-8226
[58] = tested on: K562
[59] = tested on: HCC 2998

Question: With `CCOCC(NC(=O)C(CC(C)C)NC(=O)OC(C)(C)C)C(N)=O` (stereo not drawn) (Boc-Leu-Ser(Et)-NH2; configuration not given here) as the molecule, how does the GI50 [1] read?
Answer: > 100 µM (inactive)

Question: And the GI50 [2]?
Answer: > 100 µM (inactive)

Question: And the GI50 [3]?
Answer: 1.59 µM (inactive)

Question: And the GI50 [4]?
Answer: > 100 µM (inactive)

Question: And the GI50 [5]?
Answer: > 100 µM (inactive)

Question: What about the GI50 [6] of the same molecule?
Answer: > 100 µM (inactive)

Question: What about the GI50 [7] of the same molecule?
Answer: > 100 µM (inactive)

Question: What about the GI50 [8] of the same molecule?
Answer: > 100 µM (inactive)

Question: And the GI50 [9]?
Answer: > 100 µM (inactive)

Question: What about the GI50 [10] of the same molecule?
Answer: > 100 µM (inactive)

Question: And the GI50 [11]?
Answer: > 100 µM (inactive)

Question: What about the GI50 [12] of the same molecule?
Answer: > 100 µM (inactive)

Question: And the GI50 [13]?
Answer: > 100 µM (inactive)

Question: What about the GI50 [14] of the same molecule?
Answer: > 100 µM (inactive)

Question: And the GI50 [15]?
Answer: 0.11 µM (active)

Question: And the GI50 [16]?
Answer: > 100 µM (inactive)

Question: What about the GI50 [17] of the same molecule?
Answer: > 100 µM (inactive)

Question: And the GI50 [18]?
Answer: 1.31 µM (inactive)

Question: What about the GI50 [19] of the same molecule?
Answer: > 100 µM (inactive)

Question: What about the GI50 [20] of the same molecule?
Answer: > 100 µM (inactive)

Question: And the GI50 [21]?
Answer: > 100 µM (inactive)

Question: What about the GI50 [22] of the same molecule?
Answer: 1.46 µM (inactive)

Question: What about the GI50 [23] of the same molecule?
Answer: 41 µM (inactive)

Question: What about the GI50 [24] of the same molecule?
Answer: > 100 µM (inactive)

Question: And the GI50 [25]?
Answer: > 100 µM (inactive)

Question: And the GI50 [26]?
Answer: > 100 µM (inactive)

Question: What about the GI50 [27] of the same molecule?
Answer: > 100 µM (inactive)

Question: And the GI50 [28]?
Answer: > 100 µM (inactive)

Question: And the GI50 [29]?
Answer: > 100 µM (inactive)

Question: What about the GI50 [30] of the same molecule?
Answer: > 100 µM (inactive)

Question: What about the GI50 [31] of the same molecule?
Answer: > 100 µM (inactive)

Question: What about the GI50 [32] of the same molecule?
Answer: > 100 µM (inactive)

Question: What about the GI50 [33] of the same molecule?
Answer: > 100 µM (inactive)

Question: And the GI50 [34]?
Answer: > 100 µM (inactive)

Question: What about the GI50 [35] of the same molecule?
Answer: > 100 µM (inactive)

Question: What about the GI50 [36] of the same molecule?
Answer: > 100 µM (inactive)

Question: What about the GI50 [37] of the same molecule?
Answer: > 100 µM (inactive)

Question: And the GI50 [38]?
Answer: > 100 µM (inactive)

Question: And the GI50 [39]?
Answer: > 100 µM (inactive)

Question: And the GI50 [40]?
Answer: > 100 µM (inactive)

Question: And the GI50 [41]?
Answer: > 100 µM (inactive)

Question: And the GI50 [42]?
Answer: > 100 µM (inactive)

Question: What about the GI50 [43] of the same molecule?
Answer: > 100 µM (inactive)

Question: And the GI50 [44]?
Answer: > 100 µM (inactive)

Question: And the GI50 [45]?
Answer: > 100 µM (inactive)

Question: What about the GI50 [46] of the same molecule?
Answer: > 100 µM (inactive)

Question: And the GI50 [47]?
Answer: > 100 µM (inactive)

Question: And the GI50 [48]?
Answer: > 100 µM (inactive)

Question: What about the GI50 [49] of the same molecule?
Answer: > 100 µM (inactive)

Question: What about the GI50 [50] of the same molecule?
Answer: > 100 µM (inactive)

Question: And the GI50 [51]?
Answer: > 100 µM (inactive)

Question: And the GI50 [52]?
Answer: > 100 µM (inactive)

Question: What about the GI50 [53] of the same molecule?
Answer: > 100 µM

Question: What about the GI50 [54] of the same molecule?
Answer: > 100 µM (inactive)

Question: `CC(=O)CC(=O)N1CCSC1=S` was tested. Which GI50 [1] did it give?
Answer: 6.67 µM (inactive)

Question: And the GI50 [2]?
Answer: > 10 µM (inactive)

Question: What about the GI50 [3] of the same molecule?
Answer: > 10 µM (inactive)

Question: And the GI50 [4]?
Answer: > 10 µM (inactive)

Question: And the GI50 [5]?
Answer: > 10 µM (inactive)

Question: What about the GI50 [6] of the same molecule?
Answer: > 10 µM (inactive)

Question: And the GI50 [55]?
Answer: > 10 µM (inactive)

Question: What about the GI50 [7] of the same molecule?
Answer: > 10 µM (inactive)

Question: What about the GI50 [8] of the same molecule?
Answer: > 10 µM (inactive)

Question: And the GI50 [9]?
Answer: > 10 µM (inactive)

Question: What about the GI50 [10] of the same molecule?
Answer: > 10 µM (inactive)

Question: And the GI50 [11]?
Answer: > 10 µM (inactive)

Question: What about the GI50 [12] of the same molecule?
Answer: > 10 µM (inactive)

Question: What about the GI50 [13] of the same molecule?
Answer: > 10 µM (inactive)

Question: What about the GI50 [14] of the same molecule?
Answer: > 10 µM (inactive)

Question: What about the GI50 [56] of the same molecule?
Answer: > 10 µM (inactive)

Question: What about the GI50 [15] of the same molecule?
Answer: > 10 µM (inactive)

Question: And the GI50 [16]?
Answer: > 10 µM (inactive)

Question: What about the GI50 [17] of the same molecule?
Answer: > 10 µM (inactive)

Question: What about the GI50 [18] of the same molecule?
Answer: > 10 µM (inactive)

Question: And the GI50 [57]?
Answer: > 10 µM (inactive)

Question: What about the GI50 [19] of the same molecule?
Answer: > 10 µM (inactive)

Question: What about the GI50 [21] of the same molecule?
Answer: > 10 µM (inactive)

Question: What about the GI50 [22] of the same molecule?
Answer: > 10 µM (inactive)

Question: And the GI50 [23]?
Answer: > 10 µM (inactive)

Question: What about the GI50 [24] of the same molecule?
Answer: > 10 µM (inactive)

Question: What about the GI50 [26] of the same molecule?
Answer: > 10 µM (inactive)

Question: And the GI50 [27]?
Answer: > 10 µM (inactive)

Question: What about the GI50 [28] of the same molecule?
Answer: > 10 µM (inactive)

Question: What about the GI50 [29] of the same molecule?
Answer: > 10 µM (inactive)

Question: What about the GI50 [30] of the same molecule?
Answer: > 10 µM (inactive)

Question: What about the GI50 [31] of the same molecule?
Answer: > 10 µM (inactive)

Question: What about the GI50 [33] of the same molecule?
Answer: > 10 µM (inactive)

Question: And the GI50 [34]?
Answer: > 10 µM (inactive)

Question: What about the GI50 [58] of the same molecule?
Answer: > 10 µM (inactive)

Question: And the GI50 [35]?
Answer: > 10 µM (inactive)

Question: What about the GI50 [36] of the same molecule?
Answer: > 10 µM (inactive)

Question: What about the GI50 [38] of the same molecule?
Answer: > 10 µM (inactive)

Question: And the GI50 [39]?
Answer: > 10 µM (inactive)

Question: And the GI50 [40]?
Answer: > 10 µM (inactive)

Question: What about the GI50 [41] of the same molecule?
Answer: > 10 µM (inactive)

Question: What about the GI50 [42] of the same molecule?
Answer: > 10 µM (inactive)

Question: And the GI50 [43]?
Answer: > 10 µM (inactive)

Question: What about the GI50 [45] of the same molecule?
Answer: > 10 µM (inactive)

Question: What about the GI50 [46] of the same molecule?
Answer: > 10 µM (inactive)

Question: And the GI50 [47]?
Answer: > 10 µM (inactive)

Question: What about the GI50 [48] of the same molecule?
Answer: > 10 µM (inactive)

Question: What about the GI50 [49] of the same molecule?
Answer: > 10 µM (inactive)

Question: What about the GI50 [50] of the same molecule?
Answer: > 10 µM (inactive)

Question: And the GI50 [51]?
Answer: > 10 µM (inactive)

Question: And the GI50 [52]?
Answer: > 10 µM (inactive)

Question: What about the GI50 [59] of the same molecule?
Answer: > 10 µM (inactive)

Question: And the GI50 [53]?
Answer: > 10 µM

Question: What about the GI50 [54] of the same molecule?
Answer: > 10 µM (inactive)

Question: What does the source list for `Nc1c2c(nc3ccccc13)CCCCCC2`?
Answer: GI50 [2]: 16 µM (inactive); GI50 [3]: 17.1 µM (inactive); GI50 [6]: 18.5 µM (inactive); GI50 [55]: 16.6 µM (inactive); GI50 [7]: 15.4 µM (inactive); GI50 [8]: 38.5 µM (inactive); GI50 [11]: 27.1 µM (inactive); GI50 [12]: 16.1 µM (inactive); GI50 [56]: 15.7 µM (inactive); GI50 [16]: 42.1 µM (inactive); GI50 [17]: 7.26 µM (inactive); GI50 [18]: 13.8 µM (inactive); GI50 [57]: 19.1 µM (inactive); GI50 [19]: 17.5 µM (inactive); GI50 [22]: 26.8 µM (inactive); GI50 [23]: 15.6 µM (inactive); GI50 [25]: 19.6 µM (inactive); GI50 [26]: 20.8 µM (inactive); GI50 [28]: 18 µM (inactive); GI50 [29]: 30.4 µM (inactive); GI50 [30]: 13.6 µM (inactive); GI50 [34]: 39.3 µM (inactive); GI50 [58]: 21.5 µM (inactive); GI50 [35]: 16.4 µM (inactive); GI50 [36]: 27.2 µM (inactive); GI50 [37]: 37.5 µM (inactive); GI50 [38]: 40.7 µM (inactive); GI50 [39]: 20.8 µM (inactive); GI50 [41]: 13.7 µM (inactive); GI50 [42]: 26.9 µM (inactive); GI50 [43]: 43.3 µM (inactive); GI50 [44]: 14.2 µM (inactive); GI50 [48]: 15.2 µM (inactive); GI50 [49]: 16.6 µM (inactive); GI50 [50]: 22.4 µM (inactive); GI50 [51]: 84.5 µM (inactive); GI50 [52]: 20.7 µM (inactive); GI50 [59]: 14.4 µM (inactive); GI50 [53]: 30.3 µM; GI50 [54]: 16.5 µM (inactive)

Source: ChEMBL document CHEMBL1201862, “PubChem BioAssay data set” (2004)
